Results on one compound are retold here after patent publication US10508126B2, “Bisphosphonates vinylic monomers and polymers and uses thereof” (BAR-ILAN UNIVERSITY, priority 2012, dated 2019).

The structures appear in SMILES notation.

The assay in a line: Inhibition of HAP dissolution (calcium in supernatant by ICP). The conditions noted are these: compound 1 mM; supersaturated calcium phosphate, 0.05 M Tris pH 7.4, 37° C., 24 h. It is filed as physicochemical. The procedure:
The test based on a slightly modified method of Francis et al. (Francis, M. D. The inhibition of calcium hydroxyapatite crystal growth by polyphosphonates and polyphosphates. Calcif Tissue Res 1969, 3, 151-162). The extent of HAP formation in the presence of inhibitors was studied in supersaturated calcium phosphate solutions.
The final concentration of calcium (CaCl2.2H2O) and phosphate (K2HPO4) ions in the incubation solutions was 3.87 mM and 2.32 mM, respectively, yielding a molar ratio of [Ca]/[PO4]=1.67, as in hydroxyapatite (HAP). Each salt solution was prepared in 0.05 M Tris buffer, pH 7.4. The tested BP compound (1 mM) was dissolved in […]. 5 ml of 7.74 mM CaCl2.2H2O solution containing the BP compound and 5 ml of the 4.64 mM K2HPO4 were mixed in borosilicate glass vials (acid and acetone washed). The vials were then placed in a shaker at 37° C. for 24 h. The vials contents were centrifuged (4 min, 4000 rpm) and the supernatants were then separated and analyzed for calcium concentration by ICP Analysis.

As for `C=Cc1ccc(C(O)(P(=O)([O-])[O-])P(=O)([O-])O)cc1.[Na+].[Na+].[Na+]` [St-BP monomer, Trisodium hydroxyl (4-vinylphenyl) methelenebisphosphonic acid], the “Calcium ions concentration in filtrate (% of initial concentration)” value was 45 % of initial concentration.
